In patent US8552002B2 (Novartis AG, priority 2004, dated 2013):
Read-outs that look alike come from different tables or passages of the source.

Experiments:
Format in all cases: biochemical
[1] = molecular target: T1, KDR (Homo sapiens, UniProt P35968); assay: Inhibitory activity against KDR (VEGF-R2), in vitro data of Examples 170 and 207; settings: 10 μM, read-out: KDR inhibition at 10 μM
T1 construct: expressed in transfected cells; host or cells: CHO cells
Method in brief: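 KDR tyrosine phosphorylation detected by luminescence after overnight 4° C capture of 20 μg lysate protein with PY20:AP antibody. Lysates came from cells given compound for 2 h at 37° C, then final 20 ng/ml VEGF for 5 min; compound-free medium as control.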

[2] = molecular target: T2, FGFR3 (K650E) (Homo sapiens, UniProt P22607, K650E); assay: Recombinant GST-FGFR-3-K650E tyrosine kinase assay (33P into poly(Glu,Tyr)); settings: 10 μM
T2 construct: amino acids 411-806 of the cytoplasmic domain of human FGFR-3, N-terminally fused to GST; made in house; host or cells: Sf9 insect cells (baculovirus)

[3] = molecular target: c-Abl (Homo sapiens, UniProt P00519); assay: Inhibitory activity against c-Abl (Example 207); settings: Examples 171 to 206
[4] = molecular target: T3, Tek (Homo sapiens, UniProt Q02763); assay: Recombinant GST-Tek (Tie-2) tyrosine kinase assay (33P into poly(Glu,Tyr)); settings: Examples 1 to 169
T3 construct: amino acids 773-1124 of the cytoplasmic kinase domain of human Tek, N-terminally fused to GST; made in house; host or cells: Sf9 insect cells (baculovirus)
Method in brief: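 Read-out is filter-bound 33P in poly(Glu,Tyr) 4:1 (10 μg/mL) after 30 min at ambient temperature with 4.0 μM ATP. Enzyme: 150 ng human GST-Tek (aa 773-1124) from insect cells, in Tris pH 7.5 with Mn2+/Mg2+ and vanadate. IC50 fitted linearly over four concentrations, usually 0.01-10 μM.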

[5] = Examples 171 to 206, read-out: FGFR3 inhibition at 10 μM
[6] = Examples 1 to 169, read-out: FGFR3 (K650E) inhibition at 10 μM

T2 sequence (P22607 411-806 K650E): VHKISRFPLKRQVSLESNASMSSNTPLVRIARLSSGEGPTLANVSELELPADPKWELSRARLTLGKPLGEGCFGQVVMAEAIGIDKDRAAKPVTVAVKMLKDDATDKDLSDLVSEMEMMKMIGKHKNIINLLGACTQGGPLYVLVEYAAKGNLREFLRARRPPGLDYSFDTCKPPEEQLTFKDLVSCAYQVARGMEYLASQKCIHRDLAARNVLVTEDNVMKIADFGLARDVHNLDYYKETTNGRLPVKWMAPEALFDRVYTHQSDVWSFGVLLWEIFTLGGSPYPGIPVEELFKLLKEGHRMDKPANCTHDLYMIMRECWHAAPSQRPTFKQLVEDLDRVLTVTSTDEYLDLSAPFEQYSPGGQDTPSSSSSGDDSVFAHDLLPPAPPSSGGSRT
T1 sequence (P35968 20-1356): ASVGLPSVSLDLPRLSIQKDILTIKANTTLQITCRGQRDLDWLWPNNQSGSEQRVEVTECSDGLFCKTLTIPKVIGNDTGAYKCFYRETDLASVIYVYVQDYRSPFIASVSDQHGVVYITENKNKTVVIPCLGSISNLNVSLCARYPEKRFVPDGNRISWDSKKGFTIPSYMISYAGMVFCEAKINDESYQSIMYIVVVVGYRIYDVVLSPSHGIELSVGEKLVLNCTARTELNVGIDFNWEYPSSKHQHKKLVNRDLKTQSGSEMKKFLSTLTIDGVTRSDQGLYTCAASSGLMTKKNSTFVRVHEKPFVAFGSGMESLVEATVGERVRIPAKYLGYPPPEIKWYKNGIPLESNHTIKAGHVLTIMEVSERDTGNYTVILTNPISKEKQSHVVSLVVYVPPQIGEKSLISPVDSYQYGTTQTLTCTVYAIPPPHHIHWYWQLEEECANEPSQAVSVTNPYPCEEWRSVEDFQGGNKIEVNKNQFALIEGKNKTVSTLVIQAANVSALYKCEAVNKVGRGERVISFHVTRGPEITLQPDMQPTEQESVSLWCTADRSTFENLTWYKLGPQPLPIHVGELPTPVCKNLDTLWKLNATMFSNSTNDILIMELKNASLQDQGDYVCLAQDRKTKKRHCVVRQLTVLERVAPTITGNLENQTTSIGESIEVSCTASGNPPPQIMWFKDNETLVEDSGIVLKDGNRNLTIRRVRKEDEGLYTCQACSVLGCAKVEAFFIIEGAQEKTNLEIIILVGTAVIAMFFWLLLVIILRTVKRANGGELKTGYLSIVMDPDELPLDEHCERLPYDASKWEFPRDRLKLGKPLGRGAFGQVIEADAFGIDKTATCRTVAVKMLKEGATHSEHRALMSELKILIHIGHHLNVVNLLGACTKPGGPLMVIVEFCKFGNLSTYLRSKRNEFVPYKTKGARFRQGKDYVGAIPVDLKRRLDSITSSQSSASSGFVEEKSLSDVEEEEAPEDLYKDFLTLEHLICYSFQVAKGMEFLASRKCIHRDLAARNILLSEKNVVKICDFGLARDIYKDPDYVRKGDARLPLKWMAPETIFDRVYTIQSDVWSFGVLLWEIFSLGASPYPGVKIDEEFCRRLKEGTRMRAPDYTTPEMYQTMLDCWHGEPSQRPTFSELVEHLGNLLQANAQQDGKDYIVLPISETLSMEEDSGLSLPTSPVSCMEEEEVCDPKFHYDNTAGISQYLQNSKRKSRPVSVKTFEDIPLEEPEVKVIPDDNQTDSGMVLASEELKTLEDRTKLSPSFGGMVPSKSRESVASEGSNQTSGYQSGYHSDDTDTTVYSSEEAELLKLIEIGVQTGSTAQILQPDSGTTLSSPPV
T3 sequence (Q02763 773-1124): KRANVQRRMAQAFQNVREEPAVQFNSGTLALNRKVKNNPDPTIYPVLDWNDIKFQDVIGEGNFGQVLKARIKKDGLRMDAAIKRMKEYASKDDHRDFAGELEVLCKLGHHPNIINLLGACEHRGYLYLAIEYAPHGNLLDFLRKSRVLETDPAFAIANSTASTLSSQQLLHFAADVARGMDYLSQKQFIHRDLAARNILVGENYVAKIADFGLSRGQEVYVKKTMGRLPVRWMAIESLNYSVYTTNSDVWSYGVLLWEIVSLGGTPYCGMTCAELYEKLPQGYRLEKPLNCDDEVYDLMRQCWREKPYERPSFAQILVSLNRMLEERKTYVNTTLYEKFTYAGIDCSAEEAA
c-Abl, sequence (P00519 whole entry): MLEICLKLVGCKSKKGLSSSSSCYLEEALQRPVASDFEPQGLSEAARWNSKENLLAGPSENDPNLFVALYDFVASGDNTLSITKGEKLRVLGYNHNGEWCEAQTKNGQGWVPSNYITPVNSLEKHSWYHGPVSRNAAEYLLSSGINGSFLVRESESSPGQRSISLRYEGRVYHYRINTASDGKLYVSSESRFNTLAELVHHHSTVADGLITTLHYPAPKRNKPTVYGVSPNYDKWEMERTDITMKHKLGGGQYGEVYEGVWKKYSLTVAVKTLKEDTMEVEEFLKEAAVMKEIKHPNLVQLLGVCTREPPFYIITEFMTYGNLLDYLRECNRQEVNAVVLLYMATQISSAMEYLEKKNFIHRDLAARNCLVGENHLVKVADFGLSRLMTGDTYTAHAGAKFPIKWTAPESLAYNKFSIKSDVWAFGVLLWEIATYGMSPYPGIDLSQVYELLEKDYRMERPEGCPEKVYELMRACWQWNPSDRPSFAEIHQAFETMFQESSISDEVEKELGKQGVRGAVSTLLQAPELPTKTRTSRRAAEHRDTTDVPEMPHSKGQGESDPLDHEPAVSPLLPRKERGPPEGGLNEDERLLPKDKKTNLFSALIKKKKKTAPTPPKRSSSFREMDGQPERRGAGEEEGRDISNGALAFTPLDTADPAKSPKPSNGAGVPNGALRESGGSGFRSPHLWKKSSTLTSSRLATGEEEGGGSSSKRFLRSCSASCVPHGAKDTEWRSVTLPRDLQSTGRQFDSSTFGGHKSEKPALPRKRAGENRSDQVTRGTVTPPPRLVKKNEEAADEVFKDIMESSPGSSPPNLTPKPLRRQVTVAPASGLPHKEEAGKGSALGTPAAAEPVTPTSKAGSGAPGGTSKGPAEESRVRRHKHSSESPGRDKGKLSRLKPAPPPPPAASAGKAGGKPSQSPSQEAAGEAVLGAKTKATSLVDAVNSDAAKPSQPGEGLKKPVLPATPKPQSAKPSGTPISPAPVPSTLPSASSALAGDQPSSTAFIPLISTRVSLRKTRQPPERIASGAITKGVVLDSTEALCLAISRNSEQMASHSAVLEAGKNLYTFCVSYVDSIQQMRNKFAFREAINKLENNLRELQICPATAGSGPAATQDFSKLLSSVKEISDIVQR

Structure (SMILES) | inhibition at 10 µM ([1]; Examples 171 to 206) | inhibition at 10 µM [2, 5] | inhibition at 10 µM [3] | inhibition at 10 µM [4] | inhibition at 10 µM ([1]; Examples 1 to 169) | inhibition at 10 µM [2, 6]
Cc1ccc(NC(=O)c2cccc(C(F)(F)F)c2)cc1NC(=O)Nc1cc(Nc2ccc(OCCCN(C)C)cc2)ncn1 [Example 177, N-[3-(3-{6-[4-(3-Dimethylamino-propoxy)-phenylamino]-pyrimidin-4-yl}-ureido)-4-methyl-phenyl]-3-trifluoromethyl-benzamide] | 87 to 100% | 56 to 98% | 79 to 100% | – | – | –
Cc1ccc(C(=O)Nc2ccc(CN3CCN(C)CC3)c(C(F)(F)F)c2)cc1NC(=O)N(C)c1cc(N)ncn1 [Example 206, 3-[3-(6-Amino-pyrimidin-4-yl)-3-methyl-ureido]-4-methyl-N-[4-(4-methyl-piperazin-1-ylmethyl)-3-trifluoromethyl-phenyl]-benzamide] | 87 to 100% | 56 to 98% | 79 to 100% | – | – | –
Cc1ccc(NC(=O)c2cccc(C(F)(F)F)c2)cc1NC(=O)N(C)c1cc(Nc2cccc(OCCN3CCN(C)CC3)c2)ncn1 [Example 185, N-{4-Methyl-3-[3-methyl-3-(6-{3-[2-(4-methyl-piperazin-1-yl)-ethoxy]-phenylamino}-pyrimidin-4-yl)-ureido]-phenyl}-3-trifluoromethyl-benzamide] | 87 to 100% | 56 to 98% | 79 to 100% | – | – | –
Cc1ccc(NC(=O)c2cccc(C(F)(F)F)c2)cc1NC(=O)N(Cc1cccs1)c1cc(Nc2ccc(N3CCN(C)CC3)cc2)ncn1 [Example 193, N-[4-Methyl-3-(3-{6-[4-(4-methyl-piperazin-1-yl)-phenylamino]-pyrimid-in-4-yl}-3-thiophen-2-ylmethyl-ureido)-phenyl]-3-trifluoromethyl-benzamide] | 87 to 100% | 56 to 98% | 79 to 100% | – | – | –
Cc1ccc(NC(=O)c2cccc(C(F)(F)F)c2)cc1NC(=O)N(C)c1cc(Nc2cccc(N3CCN(C)CC3)c2)ncn1 [Example 188, N-[4-Methyl-3-(3-methyl-3-{6-[3-(4-methyl-piperazin-1-yl)-phenylamino]-pyrimidin-4-yl}-ureido)-phenyl]-3-trifluoromethyl-benzamide] | 87 to 100% | 56 to 98% | 79 to 100% | – | – | –
Cc1ccc(NC(=O)c2cccc(C(F)(F)F)c2)cc1NC(=O)N(CCN1CCN(C)CC1)c1cc(Nc2ccccc2)ncn1 [Example 189, N-{4-Methyl-3-[3-[2-(4-methyl-piperazin-1-yl)-ethyl]-3-(6-phenylamino-pyrimidin-4-yl)-ureido]-phenyl}-3-trifluoromethyl-benzamide] | 87 to 100% | 56 to 98% | 79 to 100% | – | – | –
CC(=O)Nc1cc(N(C)C(=O)Nc2cc(NC(=O)c3ccc(CN4CCN(C)CC4)c(C(F)(F)F)c3)ccc2C)ncn1 [Example 202, N-[3-[3-(6-Acetylaminopyrimidin-4-yl)-3-methylureido]-4-methylphenyL]-4-(4-methylpiperazin-1-ylmethyl)-3-trifluoromethylbenzamide] | 87 to 100% | 56 to 98% | 79 to 100% | – | – | –
CC(=O)Nc1cc(N(C)C(=O)Nc2cc(C(=O)Nc3ccc(CN4CCN(C)CC4)c(C(F)(F)F)c3)ccc2C)ncn1 [Example 205, 3-[3-(6-Acetylamino-pyrimidin-4-yl)-3-methyl-ureido]-4-methyl-N-[4-(4-methyl-piperazin-1-ylmethyl)-3-trifluoromethyl-phenyl]-benzamide] | 87 to 100% | 56 to 98% | 79 to 100% | – | – | –
Cc1ccc(NC(=O)c2cccc(C(F)(F)F)c2)cc1NC(=O)N(C)c1cc(Nc2ccccc2)ncn1 [Example 181, N-{4-Methyl-3-[3-methyl-3-(6-phenylamino-pyrimidin-4-yl)-ureido]-phenyl}-3-trifluoromethyl-benzamide] | 87 to 100% | 56 to 98% | 79 to 100% | – | – | –
COc1ccc(NC(=O)c2ccc(CN3CCN(C)CC3)c(C(F)(F)F)c2)cc1NC(=O)N(C)c1cc(Nc2ccc(N3CCN(C)CC3)cc2)ncn1 [Example 198, N-[4-Methoxy-3-(3-methyl-3-{6-[4-(4-methyl-piperazin-1-yl)-phenyl-amino]-pyrimidin-4-yl}-ureido)-phenyl]-4-(4-methyl-piperazin-1-ylmethyl)-3-trifluoro-methyl-benzamide] | 87 to 100% | 56 to 98% | 79 to 100% | – | – | –
CCN(CC)CCOc1ccc(Nc2cc(NC(=O)Nc3cc(NC(=O)c4cccc(C(F)(F)F)c4)ccc3C)ncn2)cc1 [Example 176, N-[3-(3-{6-[4-(2-Diethylamino-ethoxy)-phenylamino]-pyrimidin-4-yl}-ureido)-4-methyl-phenyl]-3-trifluoromethyl-benzamide] | 87 to 100% | 56 to 98% | 79 to 100% | – | – | –
Cc1ccc(NC(=O)c2cccc(C(F)(F)F)c2)cc1NC(=O)Nc1cc(Nc2ccccc2)ncn1 [Example 173, N-{4-Methyl-3-[3-(6-phenylamino-pyrimidin-4-yl)-ureido]-phenyl}-3-trifluoromethyl-benzamide] | 87 to 100% | 56 to 98% | 79 to 100% | – | – | –
Cc1ccc(NC(=O)c2ccc(CN3CCN(C)CC3)c(C(F)(F)F)c2)cc1NC(=O)N(C)c1cc(Nc2ccccc2)ncn1 [Example 195, N-{4-Methyl-3-[3-methyl-3-(6-phenylamino-pyrimidin-4-yl)-ureido]-phenyl}-4-(4-methyl-piperazin-1-ylmethyl)-3-trifluoromethyl-benzamide] | 87 to 100% | 56 to 98% | 79 to 100% | – | – | –
Cc1ccc(NC(=O)c2cccc(C(F)(F)F)c2)cc1NC(=O)Nc1cc(Nc2cccc(OCCN(C)C)c2)ncn1 [Example 178, N-[3-(3-{6-[3-(2-Dimethylamino-ethoxy)-phenylamino]-pyrimidin-4-yl}-ureido)-4-methyl-phenyl]-3-trifluoromethyl-benzamide] | 87 to 100% | 56 to 98% | 79 to 100% | – | – | –
Cc1ccc(NC(=O)c2cccc(C(F)(F)F)c2)cc1NC(=O)N(C)c1cc(Nc2cccc(OCCN(C)C)c2)ncn1 [Example 182, N-[3-(3-{6-[3-(2-Dimethylamino-ethoxy)-phenylamino]-pyrimidin-4-yl}-3-methyl-ureido)-4-methyl-phenyl]-3-trifluoromethyl-benzamide] | 87 to 100% | 56 to 98% | 79 to 100% | – | – | –
Cc1ccc(NC(=O)c2cccc(C(F)(F)F)c2)cc1NC(=O)N(C)c1cc(Nc2ccc(OCCN3CCN(C)CC3)cc2)ncn1 [Example 184, N-{4-Methyl-3-[3-methyl-3-(6-{4-[2-(4-methyl-piperazin-1-yl)-ethoxy]-phenylamino}-pyrimidin-4-yl)-ureido]-phenyl}-3-trifluoromethyl-benzamide] | 87 to 100% | 56 to 98% | 79 to 100% | – | – | –
COC(=O)Nc1cc(N(C)C(=O)Nc2cc(NC(=O)c3ccc(CN4CCN(C)CC4)c(C(F)(F)F)c3)ccc2C)ncn1 [Example 203, [6-(1-Methyl-3-{2-methyl-5-[4-(4-methyl-piperazin-1-ylmethyl)-3-trifluoromethyl-benzoylamino]-phenyl}-ureido)-pyrimidin-4-yl]-carbamic acid methyl ester] | 87 to 100% | 56 to 98% | 79 to 100% | – | – | –
COc1cc(OC)c(Cl)c(NC(=O)N(C)c2cc(Nc3cccc(CN4CCN(C(C)C)CC4)c3)ncn2)c1Cl [Example 161, 3-(2,6-Dichloro-3,5-dimethoxy-phenyl)-1-{6-[3-(4-isopropyl-piperazin-1-ylmethyl)-phenylamino]-pyrimidin-4-yl}-1-methyl-urea] | – | – | – | 12 to 100% | 67 to 100% | 27 to 100%
COc1cc(OC)c(Cl)c(NC(=O)Nc2cc(Nc3cccc(CN(C)C)c3)ncn2)c1Cl [Example 157, 1-(2,6-Dichloro-3,5-dimethoxy-phenyl)-3-[6-(3-dimethylaminomethyl-phenylamino)-pyrimidin-4-yl]-urea] | – | – | – | 12 to 100% | 67 to 100% | 27 to 100%
COc1cccc(NC(=O)Nc2cc(Nc3ccc(N4CCN(C)CC4)cc3)ncn2)c1 [Example 8, 1-(3-Methoxy-phenyl)-3-{6-[4-(4-methyl-piperazin-1-yl)-phenylamino]-py-rimidin-4-yl}-urea] | – | – | – | 12 to 100% | 67 to 100% | 27 to 100%
COc1cc(OC)c(Cl)c(NC(=O)Nc2cc(Nc3ccc(OCCN4CCCC4)cc3)ncn2)c1Cl [Example 155, 1-(2,6-Dichloro-3,5-dimethoxy-phenyl)-3-{6-[4-(2-pyrrolidin-1-yl-ethoxy)-phenylamino]-pyrimidin-4-yl}-urea] | – | – | – | 12 to 100% | 67 to 100% | 27 to 100%
